B1: CRP: purified human CRP (Calbiochem), stimulus applied at 10 μg/ml to HPBMCs (protein, UniProt P02741 19-224, looked up)
C-reactive protein: QTDMSRKAFVFPKESDTSYVSLKAPLTKPLKAFTVCLHFYTELSSTRGYSIFSYATKRQDNEILIFWSKDIGYSFTVGGSEILFEVPEVTVAPVHICTSWESASGIVEFWVDGKPRVRKSLKKGYTVGAEASIILGQEQDSFGGNFEGSQSLVGDIGNVNMWDFVLSPDEINTIYLGGPFSPNVLNWRALKYEVQGEVFTKPQLWP

The subject of one assay is ET-1 mRNA in HPBMCs. In words: ET-1 gene expression in HPBMCs, real-time PCR. To be noted: 10 μg/ml CRP added to 10% FCS, HPBMCs, 6 hours. In kind it is cell-based, human. Here is the method: 5×10^6 HPBMCs were plated in 6-well. After 1 hour medium was removed and cells were treated with vehicle or 1 μM P38 INHIBITOR in RPMI 1640 medium. After 1 hour cells were stimulated with 10% FCS only or 10 μg/ml CRP plus 10% FCS. After 6 hours RNA was extracted from the cells and ET-1 gene expression level was determined by real-time PCR as described in the Experimental section.
Cryopreserved human peripheral blood monocytes (HPBMCs, from Biowitker, Walkersvill, Md.) were thawed and washed twice in RPMI 1640. Cells were plated in tissue culture plates and incubated in 5% CO2 at 37 C. After 1 hr media were removed and cells were treated with various treatments. After 2 to 20 hours conditioned media and/or cell lysates were collected for the analyses of secreted cytokines, protein or mRNA expression. 10 μg/ml of purified human CRP (Calbiochem, San Diego, Calif.) was used in most of the treatments. In some experiments fetal calf serum (FCS from ATCC) was added to a final concentration of 10% together with CRP. In the examples provided herein, including those assessing the effects of p38 antagonism, cells were pre-treated with SD, a p38 small molecule inhibitor (Compound 162 in Table A) for 1 hour prior to CRP treatment as described above. In a parallel series of experiments, the effect of vehicle (DMSO) was tested. For TaqMan analyses of various gene expression cells were lysed in ice-cold RLT lysis buffer (Qiagen, Valencia, Calif.) and the lysates were kept in −80° C. until the analyses. […]
RNA was extracted from the cells using Qiagen RNA extraction kit according to the manufacturer's instruction. The expression of pro-inflammatory genes IL-1β, IL-6, IL-8, TNFα, COX-2, ET-1, TF were assessed by real-time PCR. […]
Real-time RT-PCR was performed in a two-step manner. cDNA synthesis and real-time detection were carried out in a PTC-100™ Thermal Cycler (MJ Research Inc, Waltham, Mass.) and an ABI Prism™ 7700 Sequence Detection System (Applied Biosystems, Foster City, Calif.), respectively. […] Relative quantitation of gene expression was performed using the relative standard curve method. […]
Turning to B1, the “augmentation of ET-1 gene expression” value turned out to be 1.7 fold.

In another assay the target is T1, p38 MAP kinase (Homo sapiens, UniProt Q16539).
T1 construct: expressed in transfected cells; kinase immunoprecipitated from lysates
T1 sequence (Q16539 whole entry): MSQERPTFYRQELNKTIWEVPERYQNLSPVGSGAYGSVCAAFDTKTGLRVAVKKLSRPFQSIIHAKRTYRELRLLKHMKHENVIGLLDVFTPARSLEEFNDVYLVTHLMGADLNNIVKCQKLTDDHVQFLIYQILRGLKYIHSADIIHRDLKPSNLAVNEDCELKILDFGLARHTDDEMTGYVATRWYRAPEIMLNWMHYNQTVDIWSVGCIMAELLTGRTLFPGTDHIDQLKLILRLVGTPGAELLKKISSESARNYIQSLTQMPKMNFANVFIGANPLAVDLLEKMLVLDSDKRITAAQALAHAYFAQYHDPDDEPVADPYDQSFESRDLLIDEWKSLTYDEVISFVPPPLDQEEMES
In words: p38 MAP kinase phosphorylation assay (similar to Kumar). Type of assay: biochemical. Particulars: assay similar to the phosphorylation assay (Kumar). The procedure: Alternative assays involving in vitro analysis of potential inhibitors include those where cells (HeLa) transfected with DNA coding for relevant kinases can be activated with substances such as sorbitol, IL-1, TNF, or PMA (phorbol myristate acetate). After immunoprecipitation of cell lysates, equal aliquots of immune complexes of the kinases are pre-incubated for an adequate time with a specific concentration of the potential inhibitor followed by addition of kinase substrate buffer mix containing labeled ATP and GST-ATF2 or MBP. After incubation, kinase reactions are ceased by the addition of SDS loading buffer. Phosphorylated substrate is resolved through SDS-PAGE and visualized and quantitated in a phosphorimager. Both p38 regulation, in terms of phosphorylation, and IC50 values can be determined by quantitation. See, for example Kumar,S., McDonnell, P., Gum, R., Hand, A., Lee, J., and Young, P. (1997) Biochem. Biophys. Res. Commun. 235, 533-538.
`COc1cc2c(cc1C(=O)N1CCC(Cc3ccc(F)cc3)CC1)c(C(=O)C(=O)O)cn2C` [Compound 2]: the “p38 MAP kinase activity” value is listed as “exhibit p38 MAP kinase activity”.

For `COc1cc2c(cc1C(=O)N1CCC(Cc3ccc(F)cc3)CC1)c(C(=O)C(=O)N1CCN(C)CC1)cn2C` [Compound 3], the “p38 MAP kinase activity” value was “exhibit p38 MAP kinase activity”. On the same count and under the same terms, the entry for `COc1cc2c(cc1C(=O)N1C[C@H](C)N(Cc3ccc(F)cc3)C[C@@H]1C)c(C(=O)C(=O)N(C)C)cn2C` [Compound 15] is “exhibit p38 MAP kinase activity”; for `COc1cc2c(cc1C(=O)N1CCC(=Cc3ccc(F)cc3)CC1)c(C(=O)C(=O)N(C)C)cn2C` [Compound 67] it is “exhibit p38 MAP kinase activity”; for `Cn1cc(C(=O)C(=O)N2CCCC2)c2cc(C(=O)N3CCC(Cc4ccc(F)cc4)CC3)c(Cl)cc21` [Compound 84] it is “exhibit p38 MAP kinase activity”. Still for that read-out and setting: the entry for `COCn1cc(C(=O)C(=O)N(C)C)c2cc(C(=O)N3C[C@H](C)N(Cc4ccc(F)cc4)C[C@H]3C)c(OC)cc21` [Compound 92] is “exhibit p38 MAP kinase activity”. On the same count and under the same terms, the entry for `C[C@@H]1CN(Cc2ccc(F)cc2)[C@@H](C)CN1C(=O)c1cc2c(C(=O)C(=O)N3CCOCC3)cn(C)c2cc1Cl` [Compound 96] is “exhibit p38 MAP kinase activity”; for `COc1cc2[nH]cc(C(=O)C(=O)N3CCOCC3)c2cc1C(=O)N1CCC(Cc2ccc(F)cc2)CC1` [Compound 141] it is “exhibit p38 MAP kinase activity”. For `COc1cc2[nH]cc(C(=O)C(=O)N(C)C)c2cc1C(=O)N1CC(C)N(Cc2ccc(F)cc2)CC1C` (centres unmarked) [Compound 154], the “p38 MAP kinase activity” value is “exhibit p38 MAP kinase activity”. With `Cc1[nH]c2cc(Cl)c(C(=O)N3CCC(Cc4ccc(F)cc4)CC3)cc2c1C(=O)C(=O)N1CCN(C)CC1` [Compound 169], the “p38 MAP kinase activity” value is given as “exhibit p38 MAP kinase activity”.

For the origin of these results see patent publication US20060019971A1, “Treatment of cardiovascular disease with inhibitors of p38 kinase” (priority 2003, published 2006).
